Assays:
Format in all cases: in vivo
[1] = tested on: Tobacco Budworm [Heliothis virescens (Fabricius)] eggs; assay: Tobacco budworm egg test; details: 2-day old eggs, percent in solution
Method in brief: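 Paper-towel patches of 2-day-old eggs dipped in acetone solutions of compound (0.1% downward), held on larval rearing medium at 78° F. Mortality scored once all control eggs had hatched and larvae were feeding; LC50 from dosage-mortality curves, expressed as percent compound in solution.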

[2] = tested on: Cabbage Looper [Trichoplusia ni (Hubner)]; assay: Cabbage looper insecticidal test; details: second-instar larvae, percent in solution; 3-5 days
Method in brief: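 Squash cotyledons dipped 2-3 s in compound in 50-50 acetone-water, dried, then infested with 5 second-instar larvae and held at high humidity. Mortality scored after 3-5 days at concentrations from 0.1% downward. LC50 from dosage-mortality curves, expressed as percent compound in solution.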

[3] = tested on: Rice water weevil [Lissorhoptrus oryzophilus (Kuschel)]; assay: Rice water weevil insecticidal test; details: topical, μg per weevil; 48 hours
Method: The compounds in Tables 1 and 2 above were tested for insecticidal activity using the following testing procedures. LC50 values, based on the results of these tests and calculated according to dosage-mortality curves, are expressed in Table 3.
Rice water weevil [Lissorhoptrus oryzophilus (Kuschel)]:
Test compounds were diluted in acetone. Droplets (1 μl) of test solutions were applied to the ventral abdomens of ten female adult weevils. The treated weevils were placed in containers with wet cotton balls and rice foliage. The containers were covered and kept at a temperature of about 25° C. Mortality was recorded after 48 hours. Test concentrations ranged from […] or 2.5 μg per weevil down to that at which 50% mortality occurred. The LC50 values are expressed below in Table 3 under the heading "RWW" in terms of μg of test compound per weevil.

[4] = tested on: Beet Armyworm (Spodoptera exigua); assay: Beet armyworm insecticidal test; details: second-instar larvae, percent in solution; five days
Method in brief: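 Sugar beet leaves dipped 2–3 s in compound diluted in 50:50 acetone-water, dried, then infested with five second-instar larvae in humid petri dishes. Mortality scored at 5 days; concentrations from 0.1% downward. LC50 from dosage-mortality curves, expressed as percent compound in solution.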

[5] = tested on: Aster Leafhopper [Macrosteles fascifrens (Stal)]; assay: Aster leafhopper insecticidal test; details: adults/nymphs, percent in solution; 48 hours
Method in brief: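 Three ~10 cm oat seedlings per cup were dipped 2-3 seconds in 50-50 acetone-water compound solutions, dried, and caged with ten adult/nymph leafhoppers. Mortality was counted after 48 hours at concentrations from 0.05% downward. LC50, as percent compound in solution, came from dosage-mortality curves.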

[6] = tested on: Housefly [Musca domestica]; assay: Housefly insecticidal test; details: μg per 25 female flies; mortality after 48 hours
Method in brief: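 Residual contact test: acetone dilution, 0.01% peanut oil spreader, solvent evaporated; 25 ♀ flies (1-2 d old) per cage; sugar-water plug; 48 h mortality read. LC50 in μg/25 female flies, from dose-mortality curves; top dose 100 μg/25 flies.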

[7] = tested on: Maize weevil [Sitophilus Zeamais (Motschulsky)]; assay: Maize weevil insecticidal test; details: adult weevils, percent in solution; 48 hours
Method in brief: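 LC50, in percent of compound in solution, was derived from dosage-mortality curves after 48 h at about 25 °C. Ten adult weevils per container fed on four corn seeds briefly immersed in acetone:water (50:50) solutions of up to 0.01% and dried.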

[8] = tested on: Tobacco Budworm [Heliothis virescens (Fabricius)] larvae; assay: Tobacco budworm contact test; details: second-instar larvae, percent in solution, 5 days
Method in brief: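 Cotton cotyledons dipped 2–3 s in compound in 50-50 acetone-water, dried, then infested with 5 second-instar larvae and held 5 days at high humidity. Mortality scored; LC50 from dosage-mortality curves, expressed as percent compound in solution, concentrations from 0.1% downward.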

SMILES	LC50, TBW, E (TBW-E) [1] [%]	LC50, CL [2] [%]	LC50, RWW [3] [µg]	LC50, BAW [4] [%]	LC50, LH [5] [%]	LC50, HF [6] [µg]	LC50, MW [7] [%]	LC50, TBW, C (TBW-C) [8] [%]
FC(F)(F)c1cccc(N=C(OCc2cccc(Oc3ccccc3)c2)C(Cl)Cl)c1 [Compound 66]	0.06	< 0.0025	> 2.5	0.0065	0.001	9.7	–	–
CC(C)C(=Nc1ccc(C(F)(F)F)cc1)OCc1cccc(Oc2ccccc2)c1 [Compound 68]	0.009	0.006	0.15	–	0.0001	37	> 0.01	–
CCC(=Nc1ccc(F)c(Cl)c1)OCc1cccc(Oc2ccccc2)c1 [Compound 85]	> 0.1	0.004	> 2.5	–	0.003	7	> 0.01	–
CC(C)C(=Nc1ccc(F)c(Cl)c1)OCc1cccc(Oc2cccc(F)c2)c1 [Compound 125]	0.025	0.0007	> 2.5	–	> 0.05	12	> 0.01	–
CC(C)C(=Nc1ccc2c(c1)OCO2)OCc1ccc(F)c(Oc2ccccc2)c1 [Compound 181]	0.01	0.0005	> 2.5	0.001	–	25	0.005	0.001
CC(C)C(=Nc1ccc(F)c(Cl)c1)OCc1cccc(Oc2ccc(F)cc2F)c1 [Compound 191]	0.04	0.00023	> 2.5	–	> 0.05	29	0.004	–
CC(C)C(=Nc1c(F)c(F)c(F)c(F)c1F)OCc1cccc(Oc2ccc(F)cc2)c1 [Compound 198]	> 0.1	0.0005	> 2.5	–	0.05	52	0.003	–
CC(C)C(=Nc1ccc2c(c1)OC(F)(F)O2)OCc1cccc(Oc2ccc(F)cc2)c1 [Compound 244]	> 0.1	0.00004	0.09	0.002	–	14	0.0025	0.00025
CC(C)C(=Nc1ccc2c(c1)OC(F)(F)O2)OCc1cccc(Oc2ccccc2)c1 [Compound 245]	0.016	0.0035	> 2.5	0.001	–	20	0.006	0.0015
CC(C)C(=Nc1ccc(F)c(I)c1)OCc1ccc(F)c(Oc2ccc(F)cc2)c1 [Compound 281]	0.006	0.00002	> 2.5	0.0027	–	5	0.005	0.00025
CC(C)C(=Nc1ccc(Cl)c(Cl)c1)OCc1ccc(F)c(Oc2ccc(F)cc2)c1 [Compound 289]	0.006	0.00007	0.082	–	0.0003	10	> 0.01	–
CC(C)C(=Nc1ccc(F)c(F)c1)OCc1ccc(F)c(Oc2ccc(Cl)cc2)c1 [Compound 295]	0.01	0.00004	> 2.5	–	0.0001	7.8	0.0053	0.0005
CC(C)C(=Nc1ccc(Cl)c(Cl)c1)OCc1ccc(F)c(Oc2ccc(Cl)cc2)c1 [Compound 296]	0.025	0.00025	0.14	–	0.0003	38	–	0.00045
CC(C)C(=Nc1ccc(F)c(Br)c1)OCc1ccc(F)c(Oc2ccc(Cl)cc2)c1 [Compound 298]	0.015	0.0001	> 2.5	–	0.0001	13	0.008	0.0008
CC(C)C(=Nc1ccc(F)c(C(F)(F)F)c1)OCc1ccc(F)c(Oc2ccccc2)c1 [Compound 300]	0.024	0.0003	0.075	–	0.00002	14	0.01	0.001
CC(C)C(=Nc1ccc(C(F)(F)F)cc1)OCc1ccc(F)c(Oc2ccc(Cl)cc2)c1 [Compound 324]	0.025	0.00014	0.06	0.0024	–	> 100	–	0.0004
CC(C)C(=Nc1ccc(F)cc1)OCc1ccc(F)c(Oc2ccc(Cl)cc2)c1 [Compound 325]	0.037	0.00012	> 2.5	0.0025	–	5	–	0.0006
CC(C)C(=Nc1ccc(F)c(Cl)c1F)OCc1ccc(F)c(Oc2ccc(F)cc2)c1 [Compound 330]	0.037	0.00012	0.06	–	< 0.05	5	0.001	0.00035
CC(C)C(=Nc1ccc(F)c(Cl)c1F)OCc1cccc(Oc2ccc(Cl)cc2)c1 [Compound 331]	0.04	0.0002	> 2.5	0.002	–	20	–	0.0004
CC(C)C(=Nc1ccc(OC(F)(F)F)cc1)OCc1ccc(F)c(Oc2ccccc2)c1 [Compound 338]	0.01	0.000065	0.044	–	–	26	0.0053	0.00037
C=C(C)C(=Nc1ccc(C(F)(F)F)cc1)OCc1ccc(F)c(Oc2ccccc2)c1 [Compound 431]	0.025	0.00017	0.084	–	–	9.8	0.0037	–
CC(C)C(=Nc1ccc(C(F)(F)F)c(Br)c1)OCc1ccc(F)c(Oc2ccc(Cl)cc2)c1 [Compound 433]	0.02	0.00017	0.078	–	–	< 100	0.005	–
CC(C)C(=Nc1ccc(F)c(Cl)c1F)OCc1ccc(F)c(Oc2ccccc2)c1 [Compound 451]	> 0.1	0.0001	0.065	–	0.0002	3.6	0.0051	0.00025
CC(C)C(=Nc1ccc(Cl)c(OCC(F)(F)F)c1)OCc1ccc(F)c(Oc2ccc(Cl)cc2)c1 [Compound 452]	< 0.1	0.0017	0.1	–	–	> 100	> 0.01	–
CC(C)C(=Nc1ccc(F)c(Cl)c1)OCc1cccc(Oc2ccc(F)cc2)n1 [Compound 461]	0.01	0.00008	> 2.5	0.0035	–	6	0.0075	–

Source: patent US5070210A, “Novel ketenimines as intermediates for insecticides” (ICI Americas Inc., priority 1990, dated 1991)
